Marks after values point to notes of the source that are not given here.
How the values were obtained:
Type in all cases: cell-based, HBV genotype A
[1] = test system: L180M, A194T, M204V (LMAT) mutant HBV-DNA construct transfected into HepG2 cells; experiment: transient transfection cell culture assay, extracellular HBV-DNA by real-time PCR, rtL180M+rtA194T+rtM204V (LMAT) construct
Excerpt: (§1) An extended (1.28×) HBV genome was cloned (HBV genotype A, subtype adw2) into a pBluescript KS (+) plasmid (Stratagene, La Jolla, Calif., USA), as described by Tacke et al, J Virol 78:8524-8535, 2004.
(§2) Three mutated HBV plasmids were constructed using a Quikchange (Registered) II site-directed mutagenesis kit (Stratagene, La Jolla, Calif., USA). Plasmids contained either mutations rtL180M and rtM204V (LM), rtL180M, rtM204V and rtA194T (LMAT), or rtA194T (AT). […]
(§3) HBV viral particles from the cell culture supernatant were precipitated using 26% polyethylene glycol (PEG 8000, Sigma, St. Louis, Mo., USA), followed by DNase 1 digestion (Takara, Shiga, Japan). […] A quantitative real-time PCR was used to quantify HBV-DNA. Briefly, a 189-bp fragment of the X region was amplified in a LightCycler system (Roche), using the QuantiTect Probe PCR kit (Qiagen) and the following probes and primers: 3FL-XHybprobe (5′-ACGGGGCGCACCTCTCTTTACGCGG fluorescein-3′ (SEQ ID NO:23)), 5LC-Xhybprobe (5′LCRed 640 nm-CTCCCCGTCTGTGCCTTCTCATCTGC PH-3′ (SEQ ID NO:24)), X sense (5′-GAC GTC CTT TGT YTA CGT CCC GTC-3′ (SEQ ID NO:25)), and X antisense (5′-TGCAGAGGTGAAGCGAAGTGCACA-3′ (SEQ ID NO:26)). […]
(§4) After adjusting for transfection efficiency, IC50 values were calculated from the HBV viral load using the following formula (Vandamme et al, Antiviral methods and protocols: 231, 2000): log IC50=log conc. […]

[2] = test system: L180M + M204V (LM) mutant HBV-DNA construct transfected into HepG2 cells; experiment: transient transfection cell culture assay, extracellular HBV-DNA by real-time PCR, rtL180M+rtM204V (LM) construct
Excerpt: as §1, §2, §3, §4

[3] = test system: WT HBV-DNA construct transfected into HepG2 cells; experiment: transient transfection cell culture assay, extracellular HBV-DNA by real-time PCR, WT construct
Method: as §1
HepG2 cells were grown in Eagles minimum essential medium (LGC Promochem, Middlesex, UK), supplemented with 10% v/v fetal bovine serum at 37° C. and 5% v/v CO2. For cDNA transfections, 3×10^5 cells were seeded to semi-confluence onto each well of a 6-well plate and allowed to adhere overnight. […]
as §3
Extracellular HBV-DNA was examined by real-time PCR, 5 days post-transfection and IC50 values were calculated.

[4] = test system: A194T (AT) mutant HBV-DNA construct transfected into HepG2 cells; experiment: transient transfection cell culture assay, extracellular HBV-DNA by real-time PCR, rtA194T (AT) construct
Excerpt: as §1, §2, §3, §4

## CC(C)OC(=O)OCOP(=O)(CO[C@H](C)Cn1cnc2c(N)ncnc21)OCOC(=O)OC(C)C.O=C(O)/C=C/C(=O)O [tenofovir, Tenofovir disoproxil fumarate]
[1]; M204V (LMAT) construct, HepG2 cells, value above the cell toxic level of tenofovir
  IC50: > 120 µM
[1]; M204V (LMAT) versus WT, >10-fold = resistance
  Fold IC50, extracellular DNA: >10*^b
[2]; L180M + M204V (LM) construct, HepG2 cells, 5 days post-transfection
  IC50: 71 µM
[2]; L180M + M204V (LM) versus WT, 5-10 fold = partial resistance
  Fold IC50, extracellular DNA: 5.7^a
[3]; WT HBV construct (reference)
  Fold IC50, extracellular DNA: 1^
[3]; WT HBV construct, 5 days post-transfection
  IC50: 12.4 µM
[4]; A194T (AT) construct, HepG2 cells, 5 days post-transfection
  IC50: 95 µM
[4]; A194T (AT) versus WT, 5-10 fold = partial resistance
  Fold IC50, extracellular DNA: 7.6^a

Source: patent US7927601B2, “Variants of hepatitis B virus with resistance to anti-viral nucleoside agents and applications thereof” (Melbourne Health, priority 2004, dated 2011)
